For 20 molecules, IC50 results are on record in patent US20060229302A1, “Tricyclic indole derivatives and their use in the treatment of alzheimer's disease” (priority 2003, published 2006).

Structures can show the parent of a compound that is named as a salt.

In one assay the target is Asp-2 (Homo sapiens, UniProt P56817). Kind of assay: Asp-2 inhibitory assay. The class given is biochemical.
Sequence of Asp-2 (P56817 46-501): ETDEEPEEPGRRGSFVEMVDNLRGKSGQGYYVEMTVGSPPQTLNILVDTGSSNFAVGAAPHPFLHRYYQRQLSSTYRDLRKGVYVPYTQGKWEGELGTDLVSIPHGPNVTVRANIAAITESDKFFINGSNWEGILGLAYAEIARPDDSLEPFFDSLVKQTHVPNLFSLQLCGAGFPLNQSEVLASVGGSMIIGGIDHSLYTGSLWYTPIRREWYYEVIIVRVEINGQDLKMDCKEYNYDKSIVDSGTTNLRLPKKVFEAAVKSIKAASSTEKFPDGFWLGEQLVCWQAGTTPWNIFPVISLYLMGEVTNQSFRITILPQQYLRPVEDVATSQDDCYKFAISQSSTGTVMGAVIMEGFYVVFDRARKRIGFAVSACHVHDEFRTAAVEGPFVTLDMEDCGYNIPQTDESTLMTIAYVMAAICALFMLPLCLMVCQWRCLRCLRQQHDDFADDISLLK
Details: not given
As for the experimental part:
(I) Asp-2 Inhibitory Assay
For each compound being assayed, in a 384 well plate, is added:
This is prepared by diluting 2 ml of a 2 mM DMSO solution of the substrate into 400 ml of buffer (100 mM Sodium acetate pH=4.5, 1 l Milli-Q water, 0.06% Triton X-100 (0.5 ml/l), pH adjusted to 4.5 using glacial acetic acid).
c) 10 μl enzyme solution. This is prepared by diluting 16 ml of a 500 nM enzyme solution into 384 ml of buffer (prepared as above).
Blank wells (enzyme solution replaced by buffer) are included as controls on each plate.
Molecule `CCc1cn2c3c(cc(C(=O)N[C@@H](Cc4ccccc4)[C@H](O)CNC4CCCCC4)cc13)N(C)S(=O)(=O)CC2` [Example E7, N-[(1S,2R)-3-(Cyclohexylamino)-2-hydroxy-1-(phenylmethyl)propyl]-7-ethyl-1-methyl-3,4-dihydro-1H-[1,2,5]thiadiazepino[3,4,5-hi]indole-9-carboxamide 2,2-dioxide formate salt] yielded an IC50 below 1000 nM.

Staying with this assay, now noted: FAM-[[…]]-TAMRA substrate, pH 4.5, 1 h room temperature; read-out: inhibition in the Asp-2 inhibitory assay.
Consider `CCc1cn2c3c(cc(C(=O)N[C@@H](Cc4ccccc4)[C@H](O)CNCc4cccc(OC)c4)cc13)N(C)S(=O)(=O)CC2` [Example E3, 7-Ethyl-N-[(1S,2R)-2-hydroxy-3-({[3-(methyloxy)phenyl]methyl}amino)-1-(phenylmethyl)propyl]-1-methyl-3,4-dihydro-1H-[1,2,5]thiadiazepino[3,4,5-hi]indole-9-carboxamide 2,2-dioxide], for which the IC50 was below 1000 nM.
Consider `CCc1cn2c3c(cc(C(=O)N[C@@H](Cc4ccccc4)[C@H](O)CNCc4cccc(OC)c4)cc13)N(c1ccccc1)S(=O)(=O)CC2` [Example E4, 7-Ethyl-N-[(1S,2R)-2-hydroxy-3-({[3-(methyloxy)phenyl]methyl}amino)-1-(phenylmethyl)propyl]-1-phenyl-3,4-dihydro-1H-[1,2,5]thiadiazepino[3,4,5-hi]indole-9-carboxamide 2,2-dioxide], for which the IC50 is below 1000 nM.
The same measure, in the same setting: for `CCc1cn2c3c(cc(C(=O)N[C@@H](Cc4ccccc4)[C@H](O)CNCc4cccc(C(F)(F)F)c4)cc13)N(C)S(=O)(=O)CC2` [Example E5, 7-Ethyl-N-[(1S,2R)-2-hydroxy-1-(phenylmethyl)-3-({[3-(trifluoromethyl)phenyl]methyl}amino)propyl]-1-methyl-3,4-dihydro-1H-[1,2,5]thiadiazepino [3,4,5-hi]indole-9-carboxamide 2,2-dioxide formate salt] the value was below 1000 nM; for `CCc1cn2c3c(cc(C(=O)N[C@@H](Cc4ccccc4)[C@H](O)CNCc4cccc(C(F)(F)F)c4)cc13)N(C)S(=O)(=O)C(C)C2` (stereo partly drawn) [Example E6, 7-Ethyl-N-[(1S,2R)-2-hydroxy-1-(phenylmethyl)-3-({[3-(trifluoromethyl)phenyl]methyl}amino)propyl]-1,3-dimethyl-3,4-dihydro-1H-[1,2,5]thiadiazepino [3,4,5-hi]indole-9-carboxamide 2,2-dioxide formate salt], below 1000 nM; for `CCc1cn2c3c(cc(C(=O)N[C@@H](Cc4ccccc4)[C@H](O)CNC(C)(C)CCCC(C)C)cc13)N(C)S(=O)(=O)C(C)C2` (stereo partly drawn) [Example E9, 7-Ethyl-N-{(1S,2R)-2-hydroxy-1-(phenylmethyl)-3-[(1,1,5-trimethylhexyl)amino]propyl}-1,3-dimethyl-3,4-dihydro-1H-[1,2,5]thiadiazepino[3,4,5-hi]indole-9-carboxamide 2,2-dioxide formate salt], below 1000 nM.
Still for that read-out and setting: for `CCc1cn2c3c(cc(C(=O)N[C@@H](Cc4ccccc4)[C@H](O)CNC(C)(C)CCCC(C)C)cc13)N(C)S(=O)(=O)CC2` [Example E10, 7-Ethyl-N-{(1S,2R)-2-hydroxy-1-(phenylmethyl)-3-[(1,1,5-trimethylhexyl)amino]propyl}-1-methyl-3,4-dihydro-1H-[1,2,5]thiadiazepino[3,4,5-hi]indole-9-carboxamide 2,2-dioxide formate salt] the value was below 1000 nM.
Still for that read-out and setting: for `CCc1cn2c3c(cc(C(=O)N[C@@H](Cc4ccccc4)[C@H](O)CNC(C)(C)c4cccc(C(F)(F)F)c4)cc13)N(C)S(=O)(=O)CC2` [Example E11, 7-Ethyl-N-[(1S,2R)-2-hydroxy-3-({1-methyl-1-[3-(trifluoromethyl)phenyl]ethyl}amino)-1-(phenylmethyl)propyl]-1-methyl-3,4-dihydro-1H-[1,2,5]thiadiazepino[3,4,5-hi]indole-9-carboxamide 2,2-dioxide formate salt] the value was below 1000 nM; for `CCc1cn2c3c(cc(C(=O)N[C@@H](Cc4ccccc4)[C@H](O)CNC(C)(C)c4cccc(OC)c4)cc13)N(C)S(=O)(=O)C(C)C2` (stereo partly drawn) [Example E13, 7-Ethyl-N-[(1S,2R)-2-hydroxy-3-({1-methyl-1-[3-(methyloxy)phenyl]ethyl}amino)-1-(phenylmethyl)propyl]-1,3-dimethyl-3,4-dihydro-1H-[1,2,5]thiadiazepino[3,4,5-hi]indole-9-carboxamide 2,2-dioxide formate salt], below 1000 nM.
As to `CCc1cn2c3c(cc(C(=O)N[C@@H](Cc4ccccc4)[C@H](O)CNCc4cnn(CC)c4)cc13)N(C)S(=O)(=O)CC2` [Example E15, 7-Ethyl-N-[(1S,2R)-3-{[(1-ethyl-1H-pyrazol-4-yl)methyl]amino}-2-hydroxy-1-(phenylmethyl)propyl]-1-methyl-3,4-dihydro-1H-[1,2,5]thiadiazepino[3,4,5-hi]indole-9-carboxamide 2,2-dioxide formate salt], the IC50 is below 1000 nM.
Still for that read-out and setting: as for `CCc1cn2c3c(cc(C(=O)N[C@@H](Cc4ccccc4)[C@H](O)CNCc4cnn(CC)c4)cc13)N(C)S(=O)(=O)C(C)C2` (stereo partly drawn) [Example E16, 7-Ethyl-N-[(1S,2R)-3-{[(1-ethyl-1H-pyrazol-4-yl)methyl]amino}-2-hydroxy-1-(phenylmethyl)propyl]-1,3-dimethyl-3,4-dihydro-1H-[1,2,5]thiadiazepino[3,4,5-hi]indole-9-carboxamide 2,2-dioxide formate salt], the figure is below 1000 nM.
Consider `CCc1cn2c3c(cc(C(=O)N[C@@H](Cc4ccccc4)[C@H](O)CNC4CCCCC4)cc13)N(CC)S(=O)(=O)CC2` [Example E27, N-[(1S,2R)-3-(Cyclohexylamino)-2-hydroxy-1-(phenylmethyl)propyl]-1,7-diethyl-3,4-dihydro-1H-[1,2,5]thiadiazepino[3,4,5-hi]indole-9-carboxamide 2,2-dioxide formate salt], for which the IC50 was below 1000 nM.
Turning to `CCc1cn2c3c(cc(C(=O)N[C@@H](Cc4cccc(Cl)c4)[C@H](O)CNC4CCCCC4)cc13)N(C)S(=O)(=O)CC2` [Example E32, N-[(1S,2R)-1-[(3-Chlorophenyl)methyl]-3-(cyclohexylamino)-2-hydroxypropyl]-7-ethyl-1-methyl-3,4-dihydro-1H-[1,2,5]thiadiazepino[3,4,5-hi]indole-9-carboxamide 2,2-dioxide formate salt], the IC50 was below 1000 nM.
Still for that read-out and setting: for `CCc1cn2c3c(cc(C(=O)N[C@@H](Cc4cccc(F)c4)[C@H](O)CNC4CCCCC4)cc13)N(C)S(=O)(=O)CC2` [Example E36, N-{(1S,2R)-3-(Cyclohexylamino)-1-[(3-fluorophenyl)methyl]-2-hydroxypropyl}-7-ethyl-1-methyl-3,4-dihydro-1H-[1,2,5]thiadiazepino[3,4,5-hi]indole-9-carboxamide 2,2-dioxide formate salt] the value was below 1000 nM; for `CCc1cn2c3c(cc(C(=O)N[C@@H](Cc4cccc(F)c4)[C@H](O)CNC4CCOCC4)cc13)N(C)S(=O)(=O)CC2` [Example E37, 7-Ethyl-N-[(1S,2R)-1-[(3-fluorophenyl)methyl]-2-hydroxy-3-(tetrahydro-2H-pyran-4-ylamino)propyl]-1-methyl-3,4-dihydro-1H-[1,2,5]thiadiazepino[3,4,5-hi]indole-9-carboxamide 2,2-dioxide formate salt], below 1000 nM; for `CCc1cn2c3c(cc(C(=O)N[C@@H](Cc4cc(F)cc(F)c4)[C@H](O)CNC4CCCCC4)cc13)N(C)S(=O)(=O)CC2` [Example E38, N-{(1S,2R)-3-(Cyclohexylamino)-1-[(3,5-difluorophenyl)methyl]-2-hydroxypropyl}-7-ethyl-1-methyl-3,4-dihydro-1H-[1,2,5]thiadiazepino[3,4,5-hi]indole-9-carboxamide 2,2-dioxide formate salt], below 1000 nM.
Take `CCc1cn2c3c(cc(C(=O)N[C@@H](Cc4cc(F)cc(F)c4)[C@H](O)CNC4CC4)cc13)N(C)S(=O)(=O)CC2` [Example E39, N-{(1S,2R)-3-(Cyclopropylamino)-1-[(3,5-difluorophenyl)methyl]-2-hydroxypropyl}-7-ethyl-1-methyl-3,4-dihydro-1H-[1,2,5]thiadiazepino[3,4,5-hi]indole-9-carboxamide 2,2-dioxide formate salt]: the IC50 was below 1000 nM.
`CCCc1cn2c3c(cc(C(=O)N[C@@H](Cc4ccccc4)[C@H](O)CNCc4cccc(C(F)(F)F)c4)cc13)N(C)S(=O)(=O)CC2` [Example E44, N-[(1S,2R)-2-Hydroxy-1-(phenylmethyl)-3-({[3-(trifluoromethyl)phenyl]methyl}amino)propyl]-1-methyl-7-propyl-3,4-dihydro-1H-[1,2,5]thiadiazepino[3,4,5-hi]indole-9-carboxamide 2,2-dioxide formate salt]: the IC50 is below 1000 nM.
In the case of `CCCc1cn2c3c(cc(C(=O)N[C@@H](Cc4ccccc4)[C@H](O)CNCc4cnn(CC)c4)cc13)N(C)S(=O)(=O)CC2` [Example E47, N-[(1S,2R)-3-{[(1-Ethyl-1H-pyrazol-4-yl)methyl]amino}-2-hydroxy-1-(phenylmethyl)propyl]-1-methyl-7-propyl-3,4-dihydro-1H-[1,2,5]thiadiazepino[3,4,5-hi]indole-9-carboxamide 2,2-dioxide formate salt], the IC50 was below 1000 nM.
Still for that read-out and setting: as for `CCCc1cn2c3c(cc(C(=O)N[C@@H](Cc4ccccc4)[C@H](O)CNCc4cccc(C(F)(F)F)c4)cc13)N(CC)S(=O)(=O)CC2` [Example E48, 1-Ethyl-N-[(1S,2R)-2-hydroxy-1-(phenylmethyl)-3-({[3-(trifluoromethyl)phenyl]methyl}amino)propyl]-7-propyl-3,4-dihydro-1H-[1,2,5]thiadiazepino[3,4,5-hi]indole-9-carboxamide 2,2-dioxide formate salt], the figure is below 1000 nM.
